“And” between values parts separate entries of the source, which are not always exact repeats. Identical values can stand only once. “Also recorded” adds a separate entry of the source. Like-named read-outs stand apart in the source and are kept apart here.
Tests used:
[1] = system: WT virus and NNRTI-resistant HIV-1 strains; experiment: Broad-spectrum anti-HIV-1 activity against WT and NNRTI-resistant strains; format: cell-based; settings: Human immunodeficiency virus 1, read-out: EC50 range, broad-spectrum activity
[2] = system: Kunming mice; experiment: Acute toxicity study in Kunming mice; format: in vivo; settings: single oral dose 2000 mg/kg
[3] = system: HIV-1 strain RES056 (K103N+Y181C); settings: read-out: EC50 RES056, previously reported, ref [9]-[13], cited from earlier work
[4] = system: HIV-1 E138K; settings: read-out: EC50 E138K; previously reported; ref [9]-[13]; cited from earlier work
[5] = system: HIV-1 K103N; settings: read-out: EC50 K103N; previously reported; ref [9]-[13]; cited from earlier work
[6] = system: WT HIV-1 (IIIB); settings: read-out: EC50 WT; previously reported; ref [9]-[13]; cited from earlier work
[7] = system: HIV-1 F227L+V106A; settings: read-out: EC50 F227L+V106A; previously reported; ref [9]-[13]; cited from earlier work
[8] = system: WT HIV-1 (IIIB); settings: read-out: EC50 IIIB, MT-4 cells, MTT method
[9] = system: HIV-1 strain RES056 (K103N+Y181C); settings: read-out: EC50 RES056, MT-4 cells, MTT method
[10] = system: HIV-1 Y181C; experiment: Anti-HIV-1 activity against Y181C mutant in MT-4 cells, MTT method; format: cell-based; settings: Human immunodeficiency virus 1, MT4, read-out: EC50 Y181C
[11] = system: HIV-1 E138K; experiment: Anti-HIV-1 activity against E138K mutant in MT-4 cells, MTT method; format: cell-based; settings: Human immunodeficiency virus 1, MT4, read-out: EC50 E138K
[12] = system: WT HIV-1 (IIIB); experiment: microbe, parasite or virus in culture; settings: Human immunodeficiency virus 1, IIIB, MT4, read-out: EC50 IIIB
[13] = system: HIV-1 Y188L; experiment: Anti-HIV-1 activity against Y188L mutant in MT-4 cells, MTT method; format: cell-based; settings: Human immunodeficiency virus 1, MT4, read-out: EC50 Y188L
[14] = system: HIV-1 F227L+V106A; experiment: Anti-HIV-1 activity against F227L+V106A mutant in MT-4 cells, MTT method; format: cell-based; settings: Human immunodeficiency virus 1, MT4, read-out: EC50 F227L+V106A

| Structure (SMILES) | EC50 [4] [nM] | EC50 [5] [nM] | EC50 [6] [nM] | EC50 [7] [nM] | EC50 [9] [nM] | EC50 [3] [nM] | further results |
| --- | --- | --- | --- | --- | --- | --- | --- |
| Cc1cc(/C=C/C#N)cc(C)c1Oc1nc(Nc2ccc(C#N)c(F)c2)nc2ccsc12 [Compound 24b, (E)-4-((4-(4-(2-cyanovinyl)-2,6-dimethylphenoxy)thieno[3,2-d]pyrimidin-2-yl)amino)-2-fluorobenzonitrile] |  |  |  |  |  |  | EC50 [1]: 3.6 to 21.5 nM; Acute toxicity: behaviors and body weight vs control group [2]: no abnormal behaviors or significant changes of body weight; Acute toxicity: mortality or poisoning symptoms ([2]; following 7 days, 2000 mg/kg): no mortality or poisoning symptoms; also recorded: no acute toxicity |
| Cc1cc(C#N)cc(C)c1Oc1nc(NC2CCN(Cc3ccc(S(N)(=O)=O)cc3)CC2)nc2ccsc12 [Compound K-5a2] | 2.9 | 2.9 | 1.4 ± 0.4 | 4.2 ± 1.2 |  |  | EC50 ([3]; listed as 3): 30.6 nM and 31 nM |
| O=C1Nc2ccc(Cl)cc2[C@@](C#CC2CC2)(C(F)(F)F)O1 [EFV, efavirenz] |  |  |  |  | 260 ± 47.6 |  | EC50 [8]: 2.49 ± 0.547 nM |
| Cc1cc(C#N)cc(C)c1Oc1nc(Nc2ccc(C#N)cc2)nc(N)c1Br [ETR, Etravirine] | 14 ± 2.2 | 2.4 ± 0.6 | 4.1 ± 0.1 | 29 ± 7.7 | 32.2 ± 12.2 | 17 ± 1.8 | EC50 [10]: 14.5 ± 8.22 nM; EC50 [11]: 9.76 ± 6.9 nM; EC50 [12]: 2.55 ± 0.37 nM; EC50 [13]: 20.4 ± 8.64 nM; EC50 [14]: 19.7 ± 7.3 nM |
| Cc1cc(/C=C/C#N)cc(C)c1Nc1ccnc(Nc2ccc(C#N)cc2)n1 [RPV, rilpivirine] |  |  | 1 ± 0.3 |  |  | 11 ± 1.9 |  |

— publication PMC9677951 (Journal of medicinal chemistry, 2020)
